System: TBI mouse model
Assay: Controlled cortical impact TBI mouse model
Type: in vivo
Method: CD-1 (ICR) male mice (2-3 months old, 25-35 g body weight; DBL, Korea) were used in the TBI study. […] All mice were fed water and food ad libitum. In order to avoid and minimize transport-related stress, experiments were initiated after a period of one week following transport to allow the animals to acclimatize to environmental conditions.
An experimental controlled cortical impact (CCI) model for TBI was performed as follows. Using an isoflurane vaporizer (VetEquip), the mouse was deeply anesthetized with isoflurane inhaled at 3% in a mixture of 70:30 nitrous oxide and oxygen, and placed in a stereotaxic apparatus. […] An approximately 4 mm incision was made in the right hemisphere using a hand-held drill (midline 2 mm, bregma 1 mm). A controlled cortical impact device (Leica Impact One, Leica Biosystems) was used to accelerate an impact device equipped with a 2 mm flat-tip at a speed of 5 m/sec to a depth of 1.4 mm. […] Traumatic brain injury animal models were randomly generated according to an online randomization tool (randomizer.org). Sham-operated groups performed only craniotomy.
Control mice were intraperitoneally administered with the same volume of vehicle.
Mice were deeply anesthetized by intraperitoneal administration of a mixture of urethane (1.5 g/kg) in saline (0.9% NaCl) at 0.01 mL/g per body weight. The effect of anesthesia was assessed using a toe pinch. Subsequently, saline was perfused into the heart of the mouse, and PBS was mixed with 4% paraformaldehyde and then perfused. Brains were fixed in 4% paraformaldehyde for 1 h and immersed in 30% sucrose for cryoprotection. Then, whole brains were frozen and […] sections were formed on a cryostat microtome (CM1850, Leica) with a thickness of 30 μm.
After washing in PBS, sections were incubated overnight with a mouse monoclonal anti-NeuN antibody (1:500 dilution, Millipore) in PBS containing 0.3% Triton X-100 at 4° C. to assess neuronal loss after TBI. After washing with PBS, sections were incubated in biotinylated anti-mouse IgG (1:250 dilution, Vector) at room temperature for 2 hours […] to detect NeuN antibody and biotinylated anti-rat IgG (1:250 dilution, Vector) to examine the degree of leakage of endogenous immunoglobulin G. Then, the sections were immersed in an avidin-biotin-peroxidase complex (Vector) for 2 hours at room temperature. Between incubations, sections were washed with PBS. […] Immunoreactivity was observed under an Olympus IX70 inverted microscope.
Immunofluorescence labeling was performed according to a conventionally known general immunostaining procedure. […] After washing with PBS, the sections were incubated with each specific type of polyclonal or monoclonal primary antibody with PBS containing 0.3% Triton X-100 overnight at 4° C.
The primary antibodies used in this test are the same as follows: • mouse monoclonal anti-4-hydroxynonenal (4-HNE; diluted 1:500; Alpha Diagnostic International), • mouse monoclonal anti-Tau (Tau5; diluted 1:500; Abcam), • mouse monoclonal anti-phospho Tau (Ser202, Thr205; AT8; diluted 1:200; Invitrogen), • mouse monoclonal anti-PDI (diluted 1:100; Abcam), • rabbit polyclonal anti-ERp57 (diluted 1:100; Abcam), and • goat polyclonal anti-Iba-1 antibody (diluted 1:500; Abcam).
To count NeuN-positive cells, every sixth section was collected posterior to bregma from 1.2 to 2.1 mm at 180 μm intervals. Five coronal sections from each mouse were analyzed using a microscope with a 20×objective. These sections were then coded and provided to a blinded experimenter to count total NeuN-positive cells in hippocampal CA1 and cortex from hippocampal hemispheres. Data were expressed as the average number of NeuN-positive cells per area. To quantify the PDI-, ERp57-, Tau5-, AT8-, and 4HNE- immunofluorescence intensities, five coronal sections were evaluated by a blinded experimenter using ImageJ (National Institute of Health).

[1] = after TBI induction, versus vehicle
[2] = ipsilateral perilesional cortex, 12 and 24 hours after TBI induction

CN(Cc1ccc(Cl)cc1)c1ncnc2c1[C@@H]1OC[C@H](CN2)N1S(=O)(=O)c1ccc([N+](=O)[O-])cc1 [Compound 117]
neurologic severity score (NSS) (1, 4, 24, 48, 72 hours and 7 days after TBI): maintained nerve protection activity | pole climbing test, time to descend the pole [1]: significantly reduced | pole climbing test, time to turn the head downward [1]: significantly reduced | level of microglial activation (ipsilateral hemisphere, after TBI): the activity of microglial cells was improved | total tau and p-tau levels (Tau5, AT8 immunofluorescence) (ipsilateral hippocampal CA1 and cortex, 24 hours after TBI, 5 mg/kg, 2 times a day): these symptoms were improved | Iba-1 levels (neuroinflammation) (ipsilateral hippocampal CA1 and cortex, 72 hours after TBI): could be improved | ER stress and oxidative stress (PDI, ERp57 immunofluorescence) (ipsilateral hippocampal CA1 and cortex, 5 mg/kg, 2 times a day): these symptoms were confirmed | conversion rate from LC3-1 to LC3-II (Western blotting) [2]: the conversion rate from LC3-1 to LC3-II was improved | p62 protein level (Western blotting) [2]: an increase in p62 protein level
